Assay results taken from patent US12180372B2, “Resin composition, optical filter, image display device, solid-state imaging element, and colorant mixture” (FUJIFILM Corporation, priority 2018, dated 2024).

Tests used:
[1] = Measurement of maximum absorption wavelength of colorant or colorant mixture in chloroform solution; assay type: physicochemical; conditions: colorant mixture in chloroform, 1×10^−6 mol/L, 10 mm cell, 23° C.
Protocol: The obtained compound F-3 was dissolved in chloroform (concentration: 1×10^−6 mol/L), and the maximum absorption wavelength […] and molar absorption coefficient (c) of the compound F-3 was measured using a cell having an optical path length of 10 mm and using a spectrophotometer UV-1800PC (manufactured by Shimazu Corporation). The maximum absorption wavelength λmax of the compound F-3 was 679 nm, and the molar absorption coefficient (s) was 355000. The obtained compound F-38 was dissolved in chloroform (concentration: 1×10^−6 mol/L), and the maximum absorption wavelength […] and molar absorption coefficient (ε) of the compound F-38 was measured using a cell having an optical path length of 10 mm and using a spectrophotometer UV-1800PC (manufactured by Shimadzu Corporation). The maximum absorption wavelength λmax of the compound F-38 was 590 nm, and the molar absorption coefficient (ε) was 204000. The obtained compound F-51 was dissolved in chloroform (concentration: 1×10^−6 mol/L), and the maximum absorption wavelength λmax and molar absorption coefficient (ε) of the compound F-51 was measured using a cell having an optical path length of 10 mm and using a spectrophotometer UV-1800 (PC (manufactured by Shimadzu Corporation). The maximum absorption wavelength λmax of the compound F-51 was 589 nm, and the molar absorption coefficient (ε) was 244000. The obtained compound F-75 was dissolved in chloroform (concentration: 1×10^−6 mol/L), and the maximum absorption wavelength λmax and molar absorption coefficient (ε) of the compound F-75 was measured using a cell having an optical path length of 10 mm and using a spectrophotometer t-UV-1800PC (manufactured by Shimadzu Corporation). The maximum absorption wavelength λmax of the compound F-75 was 589 nm, and the molar absorption coefficient (ε) was 221000.

[2] = Evaluation of solubility of colorant mixture; assay type: physicochemical; conditions: for Evaluation Solubility: added to toluene at 23° C., stirred for 1 hour, visually observed; for solubility in toluene: 23° C.
Protocol: Solubility of the colorant mixture shown in the following table in […] was evaluated. Specifically, the colorant mixture was added to toluene at 23° C., stirred for 1 hour, and the presence or absence of dissolution of the colorant was visually observed and the solubility was evaluated based on the following evaluation standard.

Row | SMILES | λmax (nm) [1] [nm] | Evaluation Solubility [2] | solubility in toluene [2]
1 | CCN(CC)c1ccc(C2=C([O-])C(=C3C=CC(=[N+](CC)CC)C=C3)C2=O)cc1 [Compound A-21] | 634 | D (solubility was less than 0.1% by mass) | less than 01 % by mass
2 | CCN(CC)c1ccc(C2=C([O-])/C(=C3/C=CC(=[N+](CC)CC)C=C3NC(=O)C(C)(C)CC)C2=O)c(NC(=O)C(C)(C)CC)c1 [Compound A-24] | 673 | C (solubility was 0.1% by mass or more and less than 0.5% by mass) | less than 0.5 % by mass
3 | CC1=CC(C)=N/C1=C1\C(=O)C(c2[nH]c(C)cc2C)=C1O [Compound A-3] | 498 | D (solubility was less than 0.1% by mass) | less than 0.1 % by mass
